Experimental data taken from publication PMC6774960, “Design, synthesis and biological evaluation of a series of new resveratrol analogues as potential anti-cancer agents” (Royal Society Open Science, 2019).

Legend:
HeLa cells = test: MTT anti-proliferation assay, HeLa; format: cell-based, human; details: 24 h, average of three determinations
Description: (§1) The 22 synthesized resveratrol compounds were evaluated for anti-proliferative activities against three human cancer cell lines, including HepG2, A549 and HeLa cells, using 3-[4,5-dimethylthiazol-2-yl]-2,5 diphenyl tetrazolium bromide (MTT) assays. Paclitaxel, a well-known tubulin inhibitor, was used as a positive control.
(§2) The anti-proliferative and cytotoxicity activity was determined using MTT assay. Human cervical carcinoma HeLa cells, human hepatocellular carcinoma HepG2 cells, human lung carcinoma A549 cells were representative in the anti-proliferation assay, which were obtained from the Shanghai Institute of Cell Biology (Shanghai, China). Normal African green monkey kidney Vero cells were a gift from Dr Xiumiao He at Guangxi University for Nationalities. Normal human hepatocytes LO2 cells were a gift from Dr Xing Lin at Guangxi Medical University. The HepG2, Hela, LO2 and Vero cells were cultured in Dulbecco's modified Eagle's medium (DMEM, Gibco) and the A549 cells were cultured in RPMI1640 (Gibco), both media were supplemented with 10% fetal calf serum and antibiotics (100 IU ml^−1 penicillin, 100 IU ml^−1 streptomycin; Amresco).
After 24 h, cell morphology was observed using a light microscope, and then 20 µl of MTT solution (5 mg ml^−1) was added to the well and incubated for 4 h, then cell survival was determined by measuring the optical density (OD) absorbance at a wavelength of 570 nm using an ELISA microplate reader. […] Cisplatin and paclitaxel were used as positive control drugs.

β-tubulin in HepG2 cells = test: Immunofluorescence microscopy assay of β-tubulin; format: cell-based, human; details: 24 h
Description: Resveratrol was previously reported to hamper microtubule function. To examine whether the anti-proliferative activity of compound r, a resveratrol derivative, was related to an interaction with tubulin, we examined β-tubulin in HepG2 cells treated with compound r and by immunofluorescence assay. Compound r ranging from 5 to 45 µM inhibited β-tubulin for 24 h (figure 3). […] In addition, after incubation with compound r (5, 15 and 45 µM), many cells became multinucleated. These phenomena were consistent with those observed with other microtubule-targeted drugs.
Figure 3. Compound r promoted microtubule depolymerization in HepG2 cells. The HepG2 cells were treated with 0, 5, 15 or 45 µM compound r for 24 h, microtubule networks and nuclei were observed by immunofluorescence microscopy assay.
HepG2 cells were cultured in DMEM supplemented with 10% fetal bovine serum on coverslips in 6-well plates and allowed to adhere for at least 12 h. Cells were then incubated in the presence or absence of compound r (0, 5, 15, 45 µM) for 24 h. Control cells were incubated with vehicle alone. […] Cell nuclei were stained with 4,6-diamidino-2-phenylindole (DAPI) and then images were obtained with a fluorescence microscope equipped with a motorized image capture system. […]

HepG2 cells [1] = test: Cell cycle assay by flow cytometry; format: cell-based, human; details: 24 h, mean ± s.d.
Description: To evaluate the effects of compound r on cell cycle progression of HepG2, cells were treated with compound r at different concentrations (0, 5, 15 and 45 µM) for 24 h and then examined by flow cytometry. The accumulation of cells in S phase increased with increasing concentration of compound r. Approximately 18.36 ± 1.93%, 19.39 ± 2.06%, 29.9 ± 0.87% and 34.24 ± 1.00% of cells were arrested in S phase in response to 0, 5, 15 and 45 µM compound r, respectively. In comparison, 39.56 ± 0.97% cells were arrested in S phase after treatment with 20 µM cisplatin for 24 h.
Figure 5. Cells treated with 0, 5, 15 and 45 µM compound r for 24 h were collected and analysed by flow cytometry. Images were representative of three independent experiments. Values represented the mean ± s.d.; versus blank, *p < 0.01, **p < 0.001; versus control ^#p < 0.01, ^##p < 0.001.
Cells were treated with compound r (0, 5, 15, 45 µM) or 20 µM of cisplatin as the control for 24 h. Cells were collected by centrifugation (1000 rpm, 5 min), washed with PBS and fixed with 70% ice-cold ethanol overnight at 4°C. The cell cycle was examined on a flow cytometer using a cell cycle analysis kit (Beyotime Biotechnologyin, China) in accordance with the manufacturer's instructions.

HepG2 cells [2] = test: MTT anti-proliferation assay, HepG2; format: cell-based, human; details: average of three determinations
Description: as §1, with “control. […] Therefore, the inhibitory activity of the compounds depended not only on the 2-position substitution of acrylic acid, but also on the 3-position substitution of acrylic acid.” for “control.”
as §2
(§3) Cells were seeded in 96-well microtiter plates at a density of 1 × 10^4 cells well^−1 and incubated with different concentrations of compound (6.25, 12.50, 25.00, 50.00 to 100.00 µM), cisplatin and paclitaxel in RPMI-1640 or DMEM at 37°C with 5% CO2. After 24 h, cell morphology was observed using a light microscope, and then 20 µl of MTT solution (5 mg ml^−1) was added to the well and incubated for 4 h, then cell survival was determined by measuring the optical density (OD) absorbance at a wavelength of 570 nm using an ELISA microplate reader. The inhibition rate (IR) following each compound treatment was determined by the following equation: IR (%) = (1 − ODexp/ODcon) × 100%, where ODexp and ODcon are the OD of the treated and untreated cells, respectively. Cisplatin and paclitaxel were used as positive control drugs.

[3] = MTT cytotoxicity test, Vero; format: cell-based, African green monkey; details: African green monkey, Vero cells (normal African green monkey kidney), average of three determinations
Description: Vero cells are non-tumorigenic cell lines and are important raw materials as the research and production of biological products. Vero cells show low tumorigenicity and had been approved for use in the production of human virus vaccines. Thus, Vero cells were chosen as a control for cytotoxicity. All compounds were evaluated for their cell toxicity against Vero and normal human hepatocytes cells line (LO2) using MTT assays.
as §2, §3

COc1ccc(C(=Cc2cc(C(F)(F)F)ccc2Cl)C(=O)O)cc1 [compound r, 3-(2-chloro-5-(trifluoromethyl)phenyl)-2-(4-methoxyphenyl) acrylic acid]
IC50 (HeLa cells): 4.8 ± 0.8 µM | IC50 (HeLa cells; Homo sapiens, HeLa): 4.79 µM | microtubule network / cytoskeleton appearance (β-tubulin in HepG2 cells; HepG2, 45 µM): microtubules appeared depolymerized | microtubule network / cytoskeleton appearance (β-tubulin in HepG2 cells; HepG2, 5 and 15 µM): highly abnormal cytoskeleton | cells arrested in S phase (HepG2 cells [1]; HepG2, 5 µM): ~19.39 ± 2.06% | cells arrested in S phase (HepG2 cells [1]; HepG2, 15 µM): ~29.9 ± 0.87% | cells arrested in S phase (HepG2 cells [1]; HepG2, 45 µM): ~34.24 ± 1.00% | IC50 (HepG2 cells [2]; 24 h): 7 ± 1 µM | IC50 (HepG2 cells [2]; Homo sapiens, HepG2, 24 h): 7.49 µM | CC50 at 24 h [3]: 84 ± 3 µM
